Experimental data reported in paper PMC7939391, “[4Fe-4S] cluster trafficking mediated by Arabidopsis mitochondrial ISCA and NFU proteins” (The Journal of Biological Chemistry, 2021).

Biological target: T1, ACO2 (Arabidopsis thaliana, UniProt Q94A28)
T1 construct: untagged recombinant from pET15b (NcoI-XhoI), E. coli BL21(DE3); forward primer encodes start MASEHSY (transit peptide removed)
T1 sequence (Q94A28 98-995): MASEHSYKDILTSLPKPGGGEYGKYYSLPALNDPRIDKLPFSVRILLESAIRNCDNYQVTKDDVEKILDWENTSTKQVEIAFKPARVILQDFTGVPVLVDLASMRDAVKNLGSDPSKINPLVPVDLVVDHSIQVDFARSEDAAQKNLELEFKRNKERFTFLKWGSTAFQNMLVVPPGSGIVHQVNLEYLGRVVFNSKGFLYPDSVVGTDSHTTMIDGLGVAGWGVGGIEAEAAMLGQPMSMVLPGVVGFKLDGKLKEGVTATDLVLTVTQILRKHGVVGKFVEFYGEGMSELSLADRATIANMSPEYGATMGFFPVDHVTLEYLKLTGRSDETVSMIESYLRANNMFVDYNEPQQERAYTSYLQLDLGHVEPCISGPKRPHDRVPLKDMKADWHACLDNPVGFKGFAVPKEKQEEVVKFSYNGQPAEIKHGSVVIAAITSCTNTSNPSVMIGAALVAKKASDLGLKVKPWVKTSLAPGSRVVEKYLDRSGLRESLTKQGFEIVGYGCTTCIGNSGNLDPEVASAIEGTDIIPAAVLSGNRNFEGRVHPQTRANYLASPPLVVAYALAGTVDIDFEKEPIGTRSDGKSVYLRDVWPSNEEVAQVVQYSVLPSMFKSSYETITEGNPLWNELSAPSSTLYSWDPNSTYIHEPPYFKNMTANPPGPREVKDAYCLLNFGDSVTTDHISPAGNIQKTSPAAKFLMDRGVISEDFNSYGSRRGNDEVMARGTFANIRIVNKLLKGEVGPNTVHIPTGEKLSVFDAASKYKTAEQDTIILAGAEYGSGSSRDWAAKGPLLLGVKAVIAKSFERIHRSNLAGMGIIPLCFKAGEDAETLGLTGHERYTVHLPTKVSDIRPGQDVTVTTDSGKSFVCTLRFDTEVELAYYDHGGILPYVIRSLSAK
Test: absorbance at […] nm
Type: biochemical
Conditions: from citrate or isocitrate; [4Fe-4S]-loaded enzyme

SMILES: O=C(O)/C=C(/CC(=O)O)C(=O)O [cis-aconitate]
- absorbance at 240 nm: following the formation of cis-aconitate from citrate or isocitrate
